Experimental data: patent publication US6365753B1, “Phthalimides and herbicide containing the same as active component” (Mitsubishi Chemical Corporation, priority 1998, dated 2002)

How the values were obtained:
Assay type in all cases: in vivo
wheat = assay: Foliar treatment test (3) post emergence application, crop injury; settings: 3.0 to 4.0-leaf stage, 0.125% X-77, 21st day, index
Procedure: (§1) Volcanic ash soil from a field was put in a resin-made pot having an area of 200 cm^2. After fertilization, the seeds of Galim spurium, Brassica juncea, and wheat were cast on the soil and covered with the soil uniformly. Cultivation was continued in a greenhouse until the plants reached to the 3.0 to 4.0-leaf stage.
(§2) The emulsifiable concentrate comprising compound No. 5 of the present invention, comparative compound (B) or comparative compound (C) as an active ingredient which was prepared in accordance with Formulation Example 3 was diluted with water containing 0.125% of a spreading agent X-77 (trade name, Valent USA Co.) so that a spray of 250 L/ha might give a prescribed amount of the active ingredient. The diluted composition was uniformly sprayed to the Galium spurium plant, the Brassica juncea plant, and the wheat plant by means of a small-sized power pressure spray.
(§3) Thereafter, cultivation was continued in the greenhouse, and the herbicidal effect and the injury to the crop were examined on the 21st day from the treatment. The herbicidal effect and the injury to the crop were evaluated on the same criteria as in Test Example 4.

Galium spurium = assay: Foliar treatment test (3) post emergence application; settings: 3.0 to 4.0-leaf stage, 0.125% X-77, 21st day, index
Procedure: as §1, §2, §3

Brassica juncea [1] = assay: as above; settings: 3.0 to 4.0-leaf stage, 0.125% X-77, 21st day, index
Procedure: as §1, §2, §3

Brassica juncea [2] = assay: Foliar treatment test (1) post-emergence application; settings: foliar treatment post-emergence at 1.0- to 2.0-leaf stage, 10 g/a active ingredient, 21st day from treatment; herbicidal index; also: ranges in brackets are in %
Procedure: (§4) Volcanic ash soil from a field was put in a resin-made pot having an area of 200 cm^2. After fertilization, the seeds of Brassica juncea, Ipomoea purpurea, Echinochloa crus-galli and Alopeculus aequalis were cast on the soil and uniformly covered with the soil.
(§5) Cultivation was continued in a greenhouse, and when the weeds reached the 1.0- to 2.0-leaf stage, a prescribed amount of the emulsifiable concentrate comprising the compound of the invention as an active ingredient which was prepared in Formulation Example 3 as diluted with water was sprayed uniformly to the weeds by means of a small-sized power pressure spray to give 10 g of the active ingredient per are.
(§6) Thereafter, cultivation was further continued in the greenhouse, and the herbicidal effect was examined on the 21st day from the treatment. The results obtained are shown in Table 6 (the compound numbers in Table 6 correspond to those in Tables 1 and 2). The herbicidal effect was evaluated based on the same criteria as in Test Example 1.

Alopeculus aequalis = assay: as above; settings: foliar treatment post-emergence at 1.0- to 2.0-leaf stage, 10 g/a active ingredient, 21st day from treatment; herbicidal index; also: ranges in brackets are in %
Procedure: as §4, §5, §6

Echinochloa crus-galli [3] = assay: as above; settings: foliar treatment post-emergence at 1.0- to 2.0-leaf stage, 10 g/a active ingredient, 21st day from treatment; herbicidal index
Procedure: as §4, §5, §6

Ipomoea purpurea = assay: as above; settings: foliar treatment post-emergence at 1.0- to 2.0-leaf stage, 10 g/a active ingredient, 21st day from treatment; herbicidal index; also: ranges in brackets are in %
Procedure: as §4, §5, §6

Rotala indica = assay: Submerged treatment test; settings: 10 g/a active ingredient, treated 5th day from sowing, examined on the 2.8th day from treatment, herbicidal index; also: ranges in brackets are in %
Procedure: (§7) Alluvial soil from a paddy field was put in a resin-made pot having an area of 200 cm^2. After fertilization, an adequate amount of water was added, and the soil was puddled and leveled. Seeds of Echinochloa crus-galli, Monochoria vaginalis, Rotala indica and Scirpus juncoides were sowed within a layer 0.5 cm below the surface of the soil. Water was poured onto the soil to keep a water depth of 3.5 cm.
(§8) On the 5th day from the sowing, the emulsifiable concentrate containing the compound of the invention as an active ingredient which was prepared in Formulation Example 3 was diluted with water. A prescribed amount of the diluted composition was dropped to the water so as to give 10 g of the active ingredient per are.
(§9) Cultivation was continued in a greenhouse, and the herbicidal effect was examined on the […] from the treatment. The results obtained are shown in Table 4 (the compound numbers in Table 4 correspond to those in Tables 1 and 2). The herbicidal effect was evaluated in terms of herbicidal index based on Y(%) obtained from equation:
(§10) y=[1−(Weight of weeds above the ground in a treated pot)/(Weight of weeds above the ground in a non-treated pot)]×100 (%)

Monochoria vaginalis = assay: Submerged treatment test; settings: 10 g/a active ingredient, treated 5th day from sowing, examined on the 2.8th day from treatment, herbicidal index; also: ranges in brackets are in %
Procedure: as §7, §8, §9, §10

Scirpus juncoides = assay: Submerged treatment test; settings: 10 g/a active ingredient, treated 5th day from sowing, examined on the 2.8th day from treatment, herbicidal index; also: ranges in brackets are in %
Procedure: as §7, §8, §9, §10

Echinochloa crus-galli [4] = assay: Submerged treatment test; settings: 10 g/a active ingredient, treated 5th day from sowing, examined on the 2.8th day from treatment, herbicidal index; also: ranges in brackets are in %
Procedure: as §7, §8, §9, §10

Polygonum lapathifolium = assay: Soil treatment test pre-emergence application; settings: 10 g/a active ingredient, 28th day from treatment, herbicidal index; also: ranges in brackets are in %
Procedure: (§11) Volcanic ash soil from a field was put in a resin-made pot having an area of 200 cm^2. After fertilization, soil previously mixed uniformly with the seeds of Digitaria ciliaris, Setaria viridis, Chenopodium album and Polygonum lapathifolium was scattered on the soil. The emulsifiable concentrate comprising the compound of the invention as an active ingredient which was obtained in Formulation Example 3 was diluted with water, and a prescribed amount of the diluted composition was sprayed uniformly to the surface of the soil by means of a small-sized power pressure spray to give 10 g of the active ingredient per are.
as §6, with “was” for “was further”, “in a” for “in the”, “the 28th” for “the 21st”, “Table 5” for “Table 6”

Digitaria ciliaris = assay: Soil treatment test pre-emergence application; settings: 10 g/a active ingredient, 28th day from treatment, herbicidal index; also: ranges in brackets are in %
Procedure: as §11
as §6, with “was” for “was further”, “in a” for “in the”, “the 28th” for “the 21st”, “Table 5” for “Table 6”

Setaria viridis = assay: Soil treatment test pre-emergence application; settings: 10 g/a active ingredient, 28th day from treatment, herbicidal index; also: ranges in brackets are in %
Procedure: as §11
as §6, with “was” for “was further”, “in a” for “in the”, “the 28th” for “the 21st”, “Table 5” for “Table 6”

Chenopodium album = assay: Soil treatment test pre-emergence application; settings: 10 g/a active ingredient, 28th day from treatment, herbicidal index; also: ranges in brackets are in %
Procedure: as §11
as §6, with “was” for “was further”, “in a” for “in the”, “the 28th” for “the 21st”, “Table 5” for “Table 6”
For Herbicidal Effect Echinochloa crus-galli in this document: ranges in brackets are in %.

Row | Structure (SMILES) | Herbicidal Effect Brassica juncea (Brassica juncea [2]) | Herbicidal Effect Alopeculus sequalis (Alopeculus aequalis) | Herbicidal Effect Echinochloa crus-galli (Echinochloa crus-galli [3]) | Herbicidal Effect Ipompoea-purpurea (Ipomoea purpurea) | Herbicidal Effect Rotala indica (Rotala indica) | Herbicidal Effect Monochoria vaginalis (Monochoria vaginalis) | Herbicidal Effect Scirpus juncoides (Scirpus juncoides) | Herbicidal Effect Echinochloa crus-galli (Echinochloa crus-galli [4]) | further results
1 | CCOC(=O)C(Cl)Cc1cc(N2C(=O)c3ccccc3C2=O)c(F)cc1Cl (centres unmarked) [Compound 5, ethyl 2-chloro-3-(2-chloro-4-fluoro-5-phthalimidophenyl)propionate] | 5 (91-100) | 1 (6-30) | 3 (51-70) | 5 (91-100) | 5 (91-100) | 5 (91-100) | 4 (71-90) | 4 (71-90) | Crop Injury Wheat (wheat; 12.5 ga.i./ha): 0 (0); Crop Injury Wheat (wheat; 25.0 ga.i./ha): 0 (0); Crop Injury Wheat (wheat; 50.0 ga.i./ha): 1 (1-9); Herbicidal Effect Galium spurium (Galium spurium; 12.5 ga.i./ha): 10 (100); Herbicidal Effect Galium spurium (Galium spurium; 25.0 ga.i./ha): 10 (100); Herbicidal Effect Galium spurium (Galium spurium; 50.0 ga.i./ha): 10 (100); Herbicidal Effect Brassica juncea (Brassica juncea [1]; 12.5 ga.i./ha): 10 (100); Herbicidal Effect Brassica juncea (Brassica juncea [1]; 25.0 ga.i./ha): 10 (100); Herbicidal Effect Brassica juncea (Brassica juncea [1]; 50.0 ga.i./ha): 10 (100)
2 | CCCCOC(=O)C(Cl)Cc1cc(N2C(=O)c3ccccc3C2=O)c(F)cc1Cl (centres unmarked) [Compound 8] | 5 (91-100) | 1 (6-30) | 1 (6-30) | 5 (91-100) | 5 (91-100) | 5 (91-100) | 5 (91-100) | 5 (91-100) | 
3 | O=C(OC1CCCC1)C(Cl)Cc1cc(N2C(=O)c3ccccc3C2=O)c(F)cc1Cl (centres unmarked) [Compound 9] | 5 (91-100) | 1 (6-30) | 2 (31-50) | 5 (91-100) | 5 (91-100) | 5 (91-100) | 5 (91-100) | 5 (91-100) | 
4 | CCCNC(=O)C(Cl)Cc1cc(N2C(=O)c3ccccc3C2=O)c(F)cc1Cl (centres unmarked) [Compound 10, 2-Chloro-3-(2-chloro-4-fluoro-5-phthalimidophenyl)-N-propylpropionamide] | 5 (91-100) | 3 (51-70) | 4 (71-90) | 5 (91-100) |  |  |  |  | 
5 | CC(C)CNC(=O)C(Cl)Cc1cc(N2C(=O)c3ccccc3C2=O)c(F)cc1Cl (centres unmarked) [Compound 11] | 5 (91-100) | 4 (71-90) | 4 (71-90) | 5 (91-100) |  |  |  |  | Herbicidal Effect Polygonum lapathifolium (Polygonum lapathifolium): 5 (91-100); Herbicidal Effect Digitaria ciliaris (Digitaria ciliaris): 4 (71-90); Herbicidal Effect Setaria viridis (Setaria viridis): 4 (71-90); Herbicidal Effect Chenopodium album (Chenopodium album): 5 (91-100)
6 | COC(=O)C=Cc1cc(N2C(=O)c3ccccc3C2=O)c(F)cc1Cl [Compound 16] | 5 (91-100) | 1 (6-30) | 3 (51-70) | 5 (91-100) |  |  |  |  | 
7 | CCOC(=O)/C=C/c1cc(N2C(=O)c3ccccc3C2=O)c(F)cc1Cl [Compound 17, Ethyl 3-(2-Chloro-4-fluoro-5-phthalimidophenyl)acrylate] | 5 (91-100) | 1 (6-30) | 1 (6-30) | 5 (91-100) |  |  |  |  | 
